{"source": "patent US10501472B2", "about": "“Method to isolate inoscavin a from Fulviformes fastuosus and medicinal preparation thereof to treat rhabdomyosarcoma cancer conditions” (University of Colombo, priority 2015, dated 2019)", "key": {"[1]": {"system": "RD cell line (human rhabdomyosarcoma)", "test": "MTT assay, antiproliferative activity against RD cell line", "format": "cell-based", "conditions": "for IC50: Homo sapiens, RD, MTT, 24 hour treatment", "description": "(§1) RD and CC-1 cell lines were cultured in DMEM supplemented with 10% heat inactivated fetal bovine serum (FBS), 3% glutamine, sodium bicarbonate and antibiotic (penicillin/streptomycin). The cells were incubated at 37° C. in a humidified CO2 incubator.\nAntiproliferative activities of inoscavin A against RD and CC-1 cells were determined using MTT (3, 4, 5-(dimethyl-thiazol-2-yl) 2-5-diphenyl tetrazolium bromide) assay. Metabolically active cells reduce MTT in to purple colored formazan crystals. Adherent cell lines were transferred with 0.12% trypsin and 0.5% EDTA and cells (2×10^5 cells/well) were seeded in 24-well plates and incubated overnight with 1 mL of the DMEM medium described above. The stock solution of inoscavin A was prepared in DMSO at a concentration of 1 mg/ml and subsequently diluted up to 1000 ng/ml in order to prepare the working standards. The resulting monolayers of RD cells and CC-1 cells (70% confluence) were treated with different concentrations of the test solution and incubated for 24 hours at 37° C.\nIn all experiments, cycloheximide (5 mM, 50 μl) was used as the positive control and negative control contained 0.25% DMSO in growth media. The culture medium was replaced with fresh medium (1 ml) after 24 hours and MTT (5 mg/ml; 100 μl) was added to each well. The cells were incubated at 37° C. for 3 hours and the medium was aspirated carefully. The remaining formazan crystals were solubilized with 750 μl of 0.05 M HCl (in 2-propanol) and absorbance was measured at 570 nm. Percentage cell viability was determined using the equation below.\n(§2) The net absorbance from the wells of the untreated cells (negative control) was taken as the 100% viability. IC50 of the test solution against RD cells was determined by regression analysis of the corresponding dose response curve. CC50 of the test solution against CC-1 cell line was also calculated using the regression analysis. Safety of the compound for normal cells was determined in terms of selectivity index (SI) by calculating the ratio of CC50/IC50. SI value>2 is considered as safe."}, "RD cells [2]": {"system": "RD cells", "test": "Microscopic examination of morphological changes of treated cells", "format": "cell-based, human", "conditions": "highest concentration 50 ng/mL, 24 hours", "description": "The morphological changes of RD cells and CC-1 cells after the treatment with different concentrations of the test solution over 24 hours were detected by microscopic examination of cells. Morphological changes were compared with the negative and positive controls under fluorescence microscope."}, "RD cells [3]": {"system": "RD cells", "test": "Ethidium bromide/acridine orange staining for apoptosis", "format": "cell-based, human", "conditions": "24 hours", "description": "Ethidium bromide and acridine orange staining were performed to investigate the apoptosis induced by inoscavin A against RD cells. Ethidium bromide (EB) is only occupied by cells with damaged cell membranes. Acridine orange (AO) permeates via both live and dead cells. Cells were seeded in chamber slides and the confluent layer was treated with the test solution containing inoscavin A at different concentrations for 24 hours at 37° C. as described previously. The adherent cells were washed with 200 μL of PBS and 2 μL of the dye mixture containing ethidium bromide ([…]) and acridine orange ([…]) was placed on each well of the chamber slide. Chamber slides were examined immediately under the fluorescence microscope. Images were photographed using a Nikon D 700 camera connected to the microscope."}, "[4]": {"system": "CC-1 cell line (normal epithelial cells)", "test": "MTT assay, cytotoxicity against normal CC-1 cell line", "format": "cell-based, mice", "conditions": "CC50 in CC-1 cells / IC50 in RD cells", "description": "as §1\nAntiproliferative activities of inoscavin A against RD and CC-1 cells were determined using MTT (3, 4, 5-(dimethyl-thiazol-2-yl) 2-5-diphenyl tetrazolium bromide) assay. Metabolically active cells reduce MTT in to purple colored formazan crystals. Adherent cell lines were transferred with 0.12% trypsin and 0.5% EDTA and cells (2×10^5 cells/well) were seeded in 24-well plates and incubated overnight with 1 mL of the DMEM medium described above. […]\nIn all experiments, cycloheximide (5 mM, 50 μl) was used as the positive control and negative control contained 0.25% DMSO in growth media. […] The remaining formazan crystals were solubilized with 750 μl of 0.05 M HCl (in 2-propanol) and absorbance was measured at 570 nm. Percentage cell viability was determined using the equation below.\nas §2, with “Safety of the compound for normal cells was determined in terms of selectivity index (SI) by calculating the ratio of CC50/IC50. SI value>2 is considered as safe.” left out"}}, "note": "Entries after “also recorded” stand apart in the source; their conditions may differ. Like-named read-outs stand apart in the source and are kept apart here."}
{"smiles": "CC1=CC(=O)C2(O1)c1c(cc(/C=C/c3ccc(O)c(O)c3)oc1=O)OC2c1ccc(O)c(O)c1", "note": "(stereo not shown) [inoscavin A, 2-(3,4-dihydroxyphenyl)-6-[(E)-2-(3,4-dihydroxyphenyl)ethenyl]-5′-methylspiro[2H-furo[3,2-c]pyran-3,2′-furan]-3′,4-dione]", "values": [{"measurement": "IC50", "setting": "[1]; mean of three independent sample preparations, read-out: IC50 against RD cells", "value": 28, "unit": "nM"}, {"measurement": "IC50", "setting": "[1]; read-out: IC50 against RD cell line", "value": 0.0128, "unit": "µg/mL"}, {"measurement": "maximum inhibition of cell growth", "setting": "[1]; RD cells, concentrations over 60 ng/mL to 100 ng/mL", "value": 75, "unit": "%"}, {"measurement": "antiproliferative activity relative to mangiferin", "setting": "[1]; RD cells, inoscavin A versus mangiferin", "value": "approximately 2500 times"}, {"measurement": "morphological changes of RD cells", "setting": "RD cells [2]", "value": "detached and round shape dead cells"}, {"measurement": "apoptosis induction (AO/EB staining)", "setting": "RD cells [3]", "value": "confirmed the apoptosis induced by inoscavin A; also recorded: mediated through apoptosis"}, {"measurement": "selectivity index (SI), ratio of CC50/IC50", "setting": "[4]", "value": 6185.18}]}
